Source: US10478425B2, “5-phenylazaindole derivative having AMPK-activating activity” (Shionogi & Co., Ltd., priority 2016, dated 2019)

Tests used:
[1] = target: T1, Human AMPK α2β2γ1 (Homo sapiens, UniProt O43741+P54646); test: Test Example 2: activation of phosphorylated human AMPK α2β2γ1 (mobility-shift kinase assay, FL-Peptide 7); format: biochemical; details: for EC150: compound concentration showing 150% relative to the control (100%), human AMPK α2β2γ1 phosphorylated with CaMKK2; for Emax: maximum rate of increase in activity within the measurement range, control = 100%, read-out: Emax
T1 construct: The full length cDNAs of human AMPK β2 (NM_005399.3) and human AMPK α2 (NM_006252.3); The full length cDNAs of human AMPK β2 (NM_005399.3); the full length cDNA of human AMPK γ1 (NM_002733.3) had been inserted into pET28b(+); 6×His (N); made in house; host or cells: Escherichia coli BL21 CodonPlus (DE3)-RIL
T1 sequence (P54646 whole entry): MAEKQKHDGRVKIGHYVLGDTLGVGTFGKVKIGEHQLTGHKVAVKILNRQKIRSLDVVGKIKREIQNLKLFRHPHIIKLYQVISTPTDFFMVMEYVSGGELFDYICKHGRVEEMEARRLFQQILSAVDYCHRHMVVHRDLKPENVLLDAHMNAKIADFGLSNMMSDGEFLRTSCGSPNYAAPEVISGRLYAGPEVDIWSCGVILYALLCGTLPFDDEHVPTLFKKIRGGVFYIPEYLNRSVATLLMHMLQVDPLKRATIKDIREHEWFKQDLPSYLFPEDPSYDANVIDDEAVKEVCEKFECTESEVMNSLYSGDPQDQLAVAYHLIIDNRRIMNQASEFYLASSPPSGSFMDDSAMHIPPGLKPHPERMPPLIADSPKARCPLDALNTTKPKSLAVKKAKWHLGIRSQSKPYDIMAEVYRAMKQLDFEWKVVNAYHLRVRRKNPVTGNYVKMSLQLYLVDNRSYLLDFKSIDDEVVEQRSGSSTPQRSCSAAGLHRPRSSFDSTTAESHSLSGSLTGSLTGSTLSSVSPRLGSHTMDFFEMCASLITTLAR
T1 sequence (O43741 whole entry): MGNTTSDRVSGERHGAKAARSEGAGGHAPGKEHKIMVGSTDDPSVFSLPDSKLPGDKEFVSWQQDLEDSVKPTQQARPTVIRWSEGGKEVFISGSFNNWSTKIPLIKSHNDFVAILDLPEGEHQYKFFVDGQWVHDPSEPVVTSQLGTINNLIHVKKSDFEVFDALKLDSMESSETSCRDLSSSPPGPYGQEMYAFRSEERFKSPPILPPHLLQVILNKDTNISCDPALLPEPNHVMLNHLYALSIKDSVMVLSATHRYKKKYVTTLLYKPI
T1 sequence (P54619 whole entry partner): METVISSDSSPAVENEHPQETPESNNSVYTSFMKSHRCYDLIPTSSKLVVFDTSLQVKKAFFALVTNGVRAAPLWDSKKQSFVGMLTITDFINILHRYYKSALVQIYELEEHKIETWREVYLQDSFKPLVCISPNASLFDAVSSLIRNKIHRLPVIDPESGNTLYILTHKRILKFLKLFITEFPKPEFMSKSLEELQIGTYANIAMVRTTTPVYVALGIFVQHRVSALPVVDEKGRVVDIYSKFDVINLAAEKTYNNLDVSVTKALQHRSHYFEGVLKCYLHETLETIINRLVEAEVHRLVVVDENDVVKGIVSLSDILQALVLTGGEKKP
Method in brief: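 His-tagged α2β2γ1 expressed in E. coli was pre-phosphorylated by GST-CaMKKβ (25 °C, 1–1.5 h), then exposed to compound for 10 min (1% DMSO). Reaction: pH 7.0 HEPES, ATP and 1.5 μM FL-Peptide 7 (final), 2 h at 25 °C. Mobility-shift conversion gave % activity increase versus compound-free control.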

[2] = test system: phosphorylation of endogenous acetyl-CoA carboxylase (ACC) in L6-GLUT4myc myoblasts; test: Test Example 3: cell-based ELISA of ACC (Ser79) phosphorylation for AMPK activation in L6-GLUT4myc myoblasts; details: for EC (150% of control): concentration causing 150% relative to vehicle control (100%), 3 hours, phospho-ACC; for Emax: maximum response within varying concentrations, vehicle control = 100%
Procedure: Cell-based assay for AMPK activation potency of compounds was performed with L6-GLUT4myc myoblasts (J. Biol. Chem. 278:17953-62, 2003) in a 96-well or 384-well plate by detecting the phosphorylation of endogenous acetyl-CoA carboxylase (ACC) using cell-based ELISA method. The cells were seeded in a 96-well plate at a density of 2×10^4 cells per well or in a 384-well plate at a density of 3.5×10^3 cells per well in minimum essential media (α-MEM) supplemented with 10% fetal bovine serum, 100 U/mL penicillin, 100 μg/mL streptomycin, 2 μg/mL blasticidin S hydrochloride and 0.5 mg/mL G418 disulfate, and maintained in a humidified atmosphere of 95% air and 5% CO2 at 37° C. for 24 hours. Following the overnight culture with an assay buffer consisting of 0.1% bovine serum albumin (BSA), 100 U/mL penicillin and 100 μg/mL streptomycin, cells were treated with varying concentrations of compounds or vehicle (dimethyl sulfoxide at a final concentration of 0.33%) in the presence of 0.1% BSA or 4% BSA for 3 hours at room temperature. After fixing cells with ice-cold 4% formaldehyde in Tris-buffered saline (TBS) for 30 min, the fixed cells were rinsed with TBS containing 0.1% or 0.01% Triton X-100 (TBS-T) and quenched with 0.6% hydrogen peroxide in TBS-T, and blocked with a blocking reagent (Blocking One P manufactured by Nacalai Tesque). Then, anti-phospho-ACC (Ser79) antibody as the primary antibody (manufactured by Cell Signaling Technology) diluted with TBS-T containing 5% Blocking One P was added to each well and the plate was incubated overnight at 4° C. After rinsing each well with TBS-T, horseradish peroxidase (HRP)-conjugated anti-rabbit IgG as the secondary antibody diluted with TBS-T containing 5% Blocking One P was added to each well and the plate was incubated for 1 hour in 96-well plate or for 5 hours in 384-well plate at room temperature. Each well of the plate was rinsed with TBS-T and added a chemiluminescent reagent (ImmunoStar® LD manufactured by Wako Pure Chemical Industries) for detection of HRP conjugates. Ten minutes later, the luminescence intensity was measured using luminometer (ViewLux or ARVO manufactured by PerkinElmer). The luminescence in the presence of compound was calculated as the rate of change relative to vehicle control, which is in the absence of compound.

[3] = BA test (oral absorption); format: in vivo; details: rat, plasma; rats; calculated from AUCs of oral and intravenous administration groups
Procedure: • (1) Animals: mice or rats • (2) Animal husbandry: Mice and rats had free access to solid food and sterilized bottled tap water. • (3) Setting of dose and group compositions: orally or intravenously administered at a predetermined dose Group compositions were as shown below. (Dose depends on the compound)
Oral: 1 to 30 mg/kg (n=2 to 3)
Intravenous: 0.5 to 10 mg/kg (n=2 to 3) • (4) Preparation of administration formulation: for oral administration, in a solution or a suspension state; for intravenous administration, in a solubilized state • (5) Dosing procedure: In oral administration study, the test substance was forcibly administered to the stomach by using a gavage tube. In intravenous administration study, the test substance was administered via tail vein using a syringe with a needle. • (6) Evaluation items: Blood was collected at each time point, and plasma concentration of the drug was determined by LC/MS/MS. • (7) Data analysis: Regarding the transition of the plasma concentration, area under the plasma concentration-time curve (AUC) was calculated by means of WinNonlin® program, respectively. Bioavailability (BA) was calculated from AUCs of the oral administration group and intravenous administration group.

| SMILES | EC150 [1] | Emax [1] | EC (150% of control) [2] | Emax [2] | bioavailability [3] |
| --- | --- | --- | --- | --- | --- |
| CS(C)(=O)=Nc1ccc(-c2ccc(-c3nc4cc(O[C@@H]5CO[C@H](CO)C5)[nH]c4cc3Cl)cc2)cc1 [Compound I-1-02] | 2.2 nM | 510% | 0.0113 µM | 968% |  |
| CC(=O)N1CCC(Oc2ccc(-c3ccc(-c4nc5cc(O[C@@H]6CO[C@H]7[C@@H]6OC[C@H]7O)[nH]c5cc4F)cc3)cc2)C1 (some centres unmarked) [Compound I-1-27] | 5.8 nM | 332% | 0.168 µM | 473% | 19.6% |
| CS(C)(=O)=Nc1ccc(-c2ccc(-c3nc4cc(O[C@@H]5CO[C@H](CO)C5)[nH]c4cc3F)cc2)cc1 [Compound I-1-47] | 0.96 nM | 542% | 0.0039 µM | 547% |  |
| O[C@@H]1CO[C@H]2[C@@H]1OC[C@H]2Oc1cc2nc(-c3ccc(-c4ccc(OC5CCNC5)cc4)cc3)c(F)cc2[nH]1 (some centres unmarked) [Compound I-1-60] | < 0.051 nM | 486% | 0.019 µM | 495% |  |
| C[S+]([O-])c1ccc(-c2ccc(-c3nc4cc(O[C@@H]5CO[C@H]6[C@@H]5OC[C@H]6O)[nH]c4cc3F)cc2)cc1 (some centres unmarked) [Compound I-1-64] | 1.6 nM | 375% | 0.021 µM | 509% | 17.8% |
| COCCOc1ccc(-c2ccc(-c3nc4cc(O[C@@H]5CO[C@H]6[C@@H]5OC[C@H]6O)[nH]c4cc3F)cc2)cc1 [Compound I-1-66] | 8.5 nM | 333% | 0.103 µM | 635% | 38.8% |
| O=C1NCCC1Oc1ccc(-c2ccc(-c3nc4cc(O[C@@H]5CO[C@H]6[C@@H]5OC[C@H]6O)[nH]c4cc3F)cc2)cc1 (some centres unmarked) [Compound I-1-70] |  |  | 0.156 µM | 512% | 25.5% |
| CC(C)(O)COc1ccc(-c2ccc(-c3nc4cc(O[C@@H]5CO[C@H]6[C@@H]5OC[C@H]6O)[nH]c4cc3F)cc2)cc1 [Compound I-2-13] | 3 nM | 652% | 0.16 µM | 650% | 59% |
| O[C@@H]1CO[C@H]2[C@@H]1OC[C@H]2Oc1cc2nc(-c3ccc([C@@H]4CCCC[C@@H]4O)cc3)c(F)cc2[nH]1 [Compound I-2-18] | 12 nM | 618% | 0.164 µM | 612% | 18.6% |
| COCCNc1ccc(-c2ccc(-c3nc4cc(O[C@@H]5CO[C@H]6[C@@H]5OC[C@H]6O)[nH]c4cc3F)cc2)cc1 [Compound I-2-31] | 6.8 nM | 478% | 0.134 µM | 656% | 40.5% |
| CN1CCC(Oc2ccc(-c3ccc(-c4nc5cc(O[C@@H]6CO[C@H]7[C@@H]6OC[C@H]7O)[nH]c5cc4F)cc3)cc2)C1=O (some centres unmarked) [Compound I-2-32] | 1.3 nM | 379% | 0.086 µM | 531% | 28.6% |
| O[C@@H]1CO[C@H]2[C@@H]1OC[C@H]2Oc1cc2nc(-c3ccc(-c4ccc(O[C@@H]5CCOC5)cc4)cc3)c(F)cc2[nH]1 [Compound I-2-84] | 4.3 nM | 514% | 0.079 µM | 684% | 52.1% |
| COCC[S+]([O-])c1ccc(-c2ccc(-c3nc4cc(O[C@@H]5CO[C@H]6[C@@H]5OC[C@H]6O)[nH]c4cc3F)cc2)cc1 (some centres unmarked) [Compound I-2-93] | 1.1 nM | 652% |  |  |  |
| CS(=O)(=O)c1ccc(-c2ccc(-c3nc4cc(O[C@@H]5CO[C@H](CO)C5)[nH]c4cc3F)cc2)nc1 [Compound I-2-94] | 0.99 nM | 652% |  |  |  |
| COCCS(=O)(=O)c1ccc(-c2ccc(-c3nc4cc(O[C@@H]5CO[C@H]6[C@@H]5OC[C@H]6O)[nH]c4cc3F)cc2)cc1 [Compound I-2-95] | 2.6 nM | 634% |  |  |  |
| COCCS(=N)(=O)c1ccc(-c2ccc(-c3nc4cc(O[C@@H]5CO[C@H]6[C@@H]5OC[C@H]6O)[nH]c4cc3F)cc2)cc1 (some centres unmarked) [Compound I-2-96] | 2.9 nM | 631% |  |  |  |
| O=C(c1ccc(-c2ccc(-c3nc4cc(O[C@@H]5CO[C@H](CO)C5(F)F)[nH]c4cc3F)cc2)cc1)N1CCOCC1 [Compound I-2-97] | 4.6 nM | 527% |  |  |  |
